Measured values from PMC6150298, “Natural Deep Eutectic Solvents (NADES) to Enhance Berberine Absorption: An In Vivo Pharmacokinetic Study” (Molecules : A Journal of Synthetic Chemistry and Natural …, 2017).
One block for each molecule: values may come before it.

How the values were obtained:
[1] = Solubility of berberine in NADES and reference solvents (HPLC-DAD); assay type: physicochemical
Protocol: Samples were placed on a magnetic stirrer (Stuart, Bibby Scientific Ltd., Stone, Staffordshire, UK) at 22 °C for 1 h, then centrifuged for 21 min at 13,000 rpm with a 5415 R centrifuge (Eppendorf, Hamburg, Germany). For quantitative measurement of solubilized berberine, a portion (100 μL) of the clear supernatant obtained after centrifugation was diluted 1:5 (v/v) in ethanol.
For quantification, stock standard solution of berberine (100 μg/mL) was prepared dissolving the analytical standard in methanol using an ultrasonic bath. A calibration curve was obtained injecting standard solutions of berberine at different concentrations, namely 50, 25, 10, 5 and 1 μg/mL. The following calibration curve was obtained: […] (R^2 = 0.9997). The Limit of Quantification (LOQ) was 1 μg/mL.
For HPLC-DAD analysis, an Agilent series 1260 HPLC instrument (Agilent, Cernusco Sul Naviglio, MI, Italy) equipped with a quaternary pump, a diode-array detector, an auto sampler and a column oven compartment was used. Analyses were performed on Eclipse XDB C8 column (5 μm, 4.6 mm × 150 mm, Agilent). The mobile phase was (A) water–formic acid (99:1 v/v) and (B) acetonitrile. A gradient program was used as follows: 0 → 11th min: A:B (90:10) → A:B (0:100) 11 → 12th min: A:B (0:100) → A:B (0:100) 12 → 12, 10th min: A:B (0:100) → A:B (90:10) 12, 10 → 14th min: A:B (90:10) → A:B (90:10). The mobile phase flow rate was 1 mL/min and the injection volume was 10 μL. The chromatogram was recorded at 350 nm and spectral data for all peaks were obtained in the range of 190–400 nm. The retention time of berberine under these analysis conditions was 6.16 min.

rat = settings: cited from earlier work
mice = settings: cited from earlier work
[2] = design: method as in PMID 26092760; settings: rats, single oral administration of berberine 200 mg/kg; cited from earlier work
[3] = human subjects, single oral dose of 500 mg of berberine hydrochloride, cited from earlier work; for time after which the plasma level reaches a plateau: plateau persisted up to 24 h

Berberine Solubility at 22 °C [1]: 2100 ± 50 µg/mL
Molecule: Water

Molecule: O=C(O)CC(O)C(=O)O (centres unmarked) [malic acid]
LD50 (rat): 1600 mg/kg

Molecule: NC(N)=O [urea]
LD50 (mice): 11,000 mg/kg

Molecule: CC(O)C(=O)O (centres unmarked) [lactic acid]
LD50 (rat): 3543 mg/kg

solubility at 1 h ([1]; water, 22 °C): 2100 µg/mL
Molecule: COc1ccc2cc3[n+](cc2c1OC)CCc1cc2c(cc1-3)OCO2 [berberine, Berberine]
total recovery of native compounds [2]: 22.83%
plasma levels [3]: lower than 0.1 nM
time after which the plasma level reaches a plateau [3]: one

Molecule: COc1cc2c(cc1O)CC[n+]1cc3c(OC)c(OC)ccc3cc1-2 [jatrorrhizine]
plasma levels [3]: lower than 0.1 nM
time after which the plasma level reaches a plateau [3]: 2 h

Berberine Solubility at 22 °C [1]: 2750 ± 50 µg/mL
Molecule: Ethanol
